Experiment [1] concerns the target T1, Fructose-1,6-bisphosphatase 1 (Sus scrofa, UniProt P00636).
T1 sequence (P00636 whole entry): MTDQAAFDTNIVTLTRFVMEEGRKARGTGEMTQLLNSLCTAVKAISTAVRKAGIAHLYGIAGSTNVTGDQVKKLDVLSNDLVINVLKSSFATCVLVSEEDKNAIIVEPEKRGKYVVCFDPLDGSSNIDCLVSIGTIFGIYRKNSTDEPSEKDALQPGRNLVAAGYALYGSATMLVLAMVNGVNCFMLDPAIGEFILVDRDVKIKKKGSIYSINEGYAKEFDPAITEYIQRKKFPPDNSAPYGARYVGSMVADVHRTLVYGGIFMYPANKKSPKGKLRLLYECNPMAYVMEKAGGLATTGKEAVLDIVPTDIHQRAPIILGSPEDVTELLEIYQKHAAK
The experiment is described as follows: Inhibition of pig FBPase expressed in Escherichia coli EK1601 by spectrophotometry. The conditions noted are these: for pIC50: read-out: IC50.

Experiment [2] deals with T2, Fructose-1,6-bisphosphatase 1 (Sus scrofa) (UniProt P00636).
T2 sequence (whole entry): T1 sequence (P00636 whole entry)
The experiment is described as follows: Inhibition of pig FBPase expressed in Escherichia coli EK1601 at 100 uM by spectrophotometry.

In experiment [3] the target is T2, Fructose-1,6-bisphosphatase 1 (Sus scrofa). The experiment can be described thus: Inhibition of pig FBPase expressed in Escherichia coli EK1601 up to 300 uM by spectrophotometry.

Each structure is given as a SMILES string. pIC50: −log10 of the molar value. Several values for one entry are separate records, joined by “and”; a condition that tells them apart may be missing. Equal values may be shown once. Activity calls are given as the source filed them. The calls are words filed in the database; no cut-off is given here.

Turning to `O=[N+]([O-])c1ccc(Nc2nc(-c3ccccc3)cs2)cc1`, the IC50 entry in experiment [1] is given as “Not Active”.

For orientation: pIC50 means the IC50 on a negative log10 scale, so that one unit is a factor of ten. As for `O=[N+]([O-])c1ccc(Nc2nc(-c3ccc(O)cc3)cs2)cc1`, the pIC50 in experiment [1] is 3.61.

Turning to `Oc1ccc(-c2csc(Nc3cccc(O)c3)n2)cc1`, the pIC50 in experiment [1] is 4.89.

For the compound `Oc1ccc(-c2csc(Nc3ccccc3O)n2)cc1`, the negative logarithm of the IC50 (pIC50) in experiment [1] is 4.82.

Take `O=C(O)c1ccc(S(=O)(=O)c2ccc(C(=O)O)cc2)cc1`: in experiment [1], the negative-log IC50 (pIC50) is 3.12.

One may read the inhibition as the relative decrease from the control value, in per cent. The compound `O=[N+]([O-])c1ccc(-c2csc(Nc3ccc(O)cc3)n2)cc1` yielded an inhibition in experiment [2] of 87%.

For `NS(=O)(=O)c1ccc(Nc2nc(-c3ccc(O)cc3)cs2)cc1`, the negative logarithm of the IC50 (pIC50) in experiment [1] is 4.49 and 4.50.

In the case of `Oc1cccc(Nc2nc(-c3ccccc3)cs2)c1`, the pIC50 in experiment [1] was 4.46.

With `O=[N+]([O-])c1cccc(Nc2nc(-c3ccc(O)cc3)cs2)c1`, the pIC50 in experiment [1] was 4.32.

Turning to `Oc1ccccc1-c1csc(Nc2ccccc2)n1`, the pIC50 in experiment [1] is 3.92.

In the case of `NS(=O)(=O)c1cccc(Nc2nc(-c3ccccc3)cs2)c1`, in experiment [1], the negative-log IC50 (pIC50) is 3.98.

In the case of `Cc1cc(C)n(CC(O)COc2ccc3ccccc3c2)n1` (stereo not drawn), in experiment [1], the negative logarithm of the IC50 (pIC50) is 2.52.

Turning to `Oc1ccc(Nc2nc(-c3ccc(O)cc3)cs2)cc1`, in experiment [1], the pIC50 is 4.32.

`O=C(O)c1cccc(Nc2nc(-c3ccccc3)cs2)c1`: the negative logarithm of the IC50 (pIC50) in experiment [1] was 3.24.

For `O=[N+]([O-])c1cccc(Nc2nc(-c3ccccc3)cs2)c1`, in experiment [3], the inhibition result was “inactive”.

As for `Nc1nc(-c2ccc(O)cc2)cs1`, the pIC50 in experiment [1] was 5.96.

For the compound `NS(=O)(=O)c1ccc(Nc2nc(-c3ccccc3)cs2)cc1`, the negative-log IC50 (pIC50) in experiment [1] was 3.84.

`Oc1ccc(-c2csc(Nc3ccccc3)n2)c(O)c1`: the pIC50 in experiment [1] is 3.46.

As for `Nc1ncnc2c1ncn2[C@@H]1O[C@H](COP(=O)(O)O)[C@@H](O)[C@H]1O` [ADENOSINE PHOSPHATE], the negative logarithm of the IC50 (pIC50) in experiment [1] is 5.89.

As to `O=[N+]([O-])c1ccc(-c2csc(Nc3ccccc3)n2)cc1`, the IC50 entry in experiment [1] was “Not Active”.

In the case of `Oc1ccc(Nc2nc(-c3ccc(O)cc3O)cs2)cc1`, the pIC50 in experiment [1] is 4.96.

On to `Oc1ccc(Nc2nc(-c3ccccc3)cs2)cc1`, for which the pIC50 in experiment [1] is 3.91.

Regarding `c1ccc(Nc2nc(-c3ccccc3)cs2)cc1`, the negative logarithm of the IC50 (pIC50) in experiment [1] was 2.60.

With `Nc1nc(-c2ccc(O)cc2O)cs1`, in experiment [1], the negative-log IC50 (pIC50) is 4.03.

Regarding `Nc1nc(-c2ccccc2)cs1`, the pIC50 in experiment [1] was 2.86.

`Oc1cccc(Nc2nc(-c3ccc(O)cc3O)cs2)c1`: the pIC50 in experiment [1] is 5.22.

Regarding `CCc1c(C)sc(NC(=S)NCc2ccccn2)c1C(=O)OC`, in experiment [1], the pIC50 is 4.70.

In the case of `NS(=O)(=O)c1cccc(Nc2nc(-c3ccc(O)cc3)cs2)c1`, the negative-log IC50 (pIC50) in experiment [1] was 4.30.

Consider `NS(=O)(=O)c1ccc(Nc2nc(-c3ccc(O)cc3O)cs2)cc1`, for which the pIC50 in experiment [1] was 4.26.

Take `Oc1ccc(-c2csc(Nc3ccccc3O)n2)c(O)c1`: the negative logarithm of the IC50 (pIC50) in experiment [1] was 4.70.

As for `Oc1ccccc1Nc1nc(-c2ccccc2)cs1`, the pIC50 in experiment [1] is 3.57.

As to `O=C(O)c1cccc(Nc2nc(-c3ccc(O)cc3)cs2)c1`, the pIC50 in experiment [1] is 4.32.

Regarding `Oc1ccc(-c2csc(Nc3ccccc3)n2)cc1`, in experiment [1], the pIC50 is 3.50.

The values above are taken from ChEMBL document CHEMBL1158422, “A library of novel allosteric inhibitors against fructose 1,6-bisphosphatase” (Bioorg Med Chem, 2009).
